Reference: US20220041578A1, “ISOINDOLINE COMPOUND, AND PREPARATION METHOD, PHARMACEUTICAL COMPOSITION, AND APPLICATION OF ISOINDOLINE COMPOUND” (Shanghai Institute of Meteria Medica, Chinese Academy of …, priority 2018, published 2022)

Legend:
TNF-α = TNF-α activity inhibition experiment in LPS-stimulated PBMC (ELISA); type: cell-based; settings: Homo sapiens, compound 10 nM, LPS 1 ug/ml, 72 hours, read-out: Inhibition rate of TNF-a (%)
Protocol: (§1) All operations of this experiment were carried out according to the conventional experimental process of this kind of experiment at present. Peripheral blood from healthy volunteers was collected by routine standard procedure and cultured in 1640 medium (+10% FBS) to obtain PBMC. After recovery, PBMC was centrifuged and resuspended in serum-free medium. After counting, adjusted the density to be 6.25×10^5/ml; then inoculated 160 ul to a 96-well plate, 1×10^5/well; 20 ul 10× compound and DMSO were added, and incubated for 1 hour in an incubator; then 20 ul 10 XLPS was added resulting the final concentration of 1 ug/ml and incubated in an incubator for 72 hours. Centrifuged the cell plate at 1500 rpm and aspirated 50 ul supernatant according to the ELISA operation. After operating according to the kit, a microplate reader was used to read at 450 nm. The concentration of compound was 10 nM, and DMSO was added as control group. Materials used in this experiment: 96 well plate (Corning, #3599), ELISA kit (Thermo), LPS (Sigma, USA).

IFNγ = IFNγ expression change in anti-human CD3 stimulated PBMC (ELISA); type: cell-based; settings: compound 10 nM, anti-human CD3 10 ug/ml, 24 hours
Protocol: as §1, with “plate, 2 holes each,” for “plate,”, “ul 10× anti-human CD3” for “ul 10 XLPS”, “of 10” for “of 1”, “for 24” for “for 72”, “USA). It was found from the test results of the following table that the compounds of the examples of the present invention could be used to regulate the expression of IFNγ.” for “USA).”

IL-2 = IL-2 expression change in anti-human CD3 stimulated PBMC (ELISA); type: cell-based; settings: compound 10 nM, anti-human CD3 10 ug/ml, 24 hours
Protocol: as §1, with “plate, 2 holes each,” for “plate,”, “ul 10× anti-human CD3” for “ul 10 XLPS”, “of 10” for “of 1”, “for 24” for “for 72”

MM.1S cells = experiment: Effect of the compound on the proliferation of MM.1S cells (MTS); type: cell-based; settings: Homo sapiens, MM1.S, 168 h, 7 days, read-out: Cell inhibitory activity (IC50)
Procedure, shortened: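 In 1640 medium + 10% FBS, 20,000 cells per well were treated with 5-fold compound dilutions at 0.2% DMSO for 7 days at 37° C., 5% CO2. MTS was read after 3–4 h as OD490−OD690, inhibition was calculated against DMSO and blank wells, and IC50 was fitted; three independent experiments were run.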

CRBN = molecular target: T1, CRBN (Homo sapiens, UniProt Q96SW2); experiment: Verification of interaction between compound and CRBN (elution from thalidomide FG beads, Western blotting); type: binding; set-up: dose or concentration left out as unconfirmed; settings: Mino cell lysate, 25° C., 15 minutes, Western blotting with CRBN antibody
T1 construct: lyse the blood tumor Mino cells, and centrifuged to obtain a clear cell lysate; endogenous in cells; host or cells: Mino cells (mantle cell lymphoma), lysate
Text: Studies have shown that lenalidomide immunomodulators in hematological tumor cell lines regulate the activity of CRBN-ubiquitin ligase complex by binding to CRBN, selectively induce ubiquitination and degradation of transcription factors IKZF1 and IKZF3, thereby achieving the role of treating malignant hematological tumors (Science, 2014, 343, 301; Science, 2014, 343, 305; Nature, 2015, 523, 183). By using high-efficiency affinity magnetic nanoparticles “FG beads”, thalidomide analogues were pre-attached to the magnetic beads, and the thalidomide FG beads could catch CRBN protein (Leukemia, 2012, 26, 2326; Science, 2010, 327, 1345). In this experiment, NP-400 cell lysate was used to lyse the blood tumor Mino cells, and centrifuged to obtain a clear cell lysate and divided it into three samples evenly. Thalidomide FG beads were added to the three samples, and the Thalidomide FG beads and the cell lysate were combined and incubated at 4° C. for 6 hours. After the incubation was completed, separated the magnetic beads with a magnetic stand, resuspended the separation with NP-400 lysate, repeated 3 times to obtain magnetic beads removed excess cell lysate. […] The eluate was denatured by heating with SDS Loading Buffer, and the amount of CRBN in each sample was detected by Western blotting with CRBN antibody (Proteintech).

Mino cells = experiment: Effect of the compound on the proliferation of Mino cells (MTS); type: cell-based; settings: Homo sapiens, 72 h, 3 days, read-out: Inhibitory activity (IC50)
Protocol: Mino cells were cultured with 1640 plus […] and collected. The cell concentration was diluted according to the action time of 3 days, and 90 ul cell suspension was added to each well of the 96-well cell plate to make the cell count to be 8000. 10 ul of DMSO with a final concentration of 0.2% was added to the control cell wells. The compound was diluted 5-fold with the 10 mM stock solution, and 10 ul was also added to the compound cell wells (the final concentration of DMSO was 0.2%). The cells were placed in a 37° C., […] incubator and incubated for 3 days. After preparing the reaction solution according to the MTS kit (Promega, G5430), 20 μL was added to each well, incubated in a 37° C., 5% CO2 incubator for 3-4 h. Read the 490 nm absorbance value with a microtiter plate, and used the 690 nm absorbance value as the background value and OD490-OD690 as the final initial data. The formula for calculating the inhibition rate of the compound was: inhibition rate=(OD DMSO-ODcompound)/(ODDMSO-Oblank)×100%. The compound's proliferation inhibition IC50 was fitted by Graph Pad Prism 5.0. The experiment was repeated three times, and three parallel experiments were used to calculate the average and standard deviation each time.

[1] = tested on: triple negative breast cancer cells MDA-MB-231; experiment: Proliferation of other tumor cells, MDA-MB-231 (WST-8); type: cell-based; settings: Homo sapiens, 96 h, MDA-MB-231 cells, 4 days, read-out: Inhibitory activity on proliferation, MDA-MB-231 (IC50)
Protocol: (§2) The human triple negative breast cancer cells MDA-MB-468 and MDA-MB-231 used in this experiment were purchased from the Shanghai Cell Bank, in which L-15 medium added with 10% fetal bovine serum (FBS) and 1% double antibody was used. At 37° C., MDA-MB-468 and MDA-MB-231 cells were cultured in an incubator without CO2. Colorectal cancer cells HCT-116 were cultured in McCOY's 5A medium with 1% double antibody and 10% fetal bovine serum (FBS); prostate cancer cells DU145 were cultured in MEM medium with 1% double antibody and 10% fetal bovine serum (FBS); prostate cancer cells PC-3 were cultured in F-12 K medium with 1% double antibody and 10% fetal bovine serum (FBS); grew at 37° C., 5% CO2.
(§3) In the cell activity test experiment, 90 μL cell suspension with appropriate concentration was added to a 96-well cell culture plate according to the cell growth, each compound to be tested was gradient diluted with the corresponding medium, 10 μL diluted compound was added to 90 μL cells, and then incubated at 37° C. for 4 days. Cell proliferation was analyzed by WST-8, which could be reduced by lactate dehydrogenase in the cells to a yellow formazan. 10 μL of WST-8 reagent (DOJINDO) was added to the cells and reacted for more than 1 hour at 37° C., DMSO-treated cells were used as […]. The absorption value of 490 nm was read by enzyme-labeled plate, and the absorption value of 690 nm was taken as the background value, and OD490-OD690 was taken as the final original data, and the data was processed by GraphPad Prism6 software. The formula for calculating the inhibition rate of the compound was: inhibition rate=(ODDMSO−ODcompound)/(ODDMSO−Oblank)×100%. The compound's proliferation inhibition IC50 was fitted by Graph Pad Prism 5.0. The experiment was repeated three times, and three parallel experiments were used to calculate the average and standard deviation each time. The cell viability test results were shown in Table 4: A means cell viability IC50<1 μM, B means cell viability 1 μM≤IC50≤20 μM, C means cell viability IC50>20 μM, NT means not tested.

[2] = tested on: prostate cancer cells PC-3; experiment: Proliferation of other tumor cells, PC-3 (WST-8); type: cell-based; settings: Homo sapiens, 96 h, PC-3 cells, 4 days, read-out: Inhibitory activity on proliferation, PC-3 (IC50)
Protocol: as §2, §3

[3] = tested on: Colorectal cancer cells HCT-116; experiment: Proliferation of other tumor cells, HCT-116 (WST-8); type: cell-based; settings: Homo sapiens, 96 h, HCT-116 cells, 4 days, read-out: Inhibitory activity on proliferation, HCT-116 (IC50)
Protocol: as §2, §3

[4] = tested on: prostate cancer cells DU145; experiment: Proliferation of other tumor cells, DU145 (WST-8); type: cell-based; settings: Homo sapiens, DU-145, 96 h, 4 days, read-out: Inhibitory activity on proliferation, DU145 (IC50)
Protocol: as §2, §3

T1 sequence (Q96SW2 whole entry): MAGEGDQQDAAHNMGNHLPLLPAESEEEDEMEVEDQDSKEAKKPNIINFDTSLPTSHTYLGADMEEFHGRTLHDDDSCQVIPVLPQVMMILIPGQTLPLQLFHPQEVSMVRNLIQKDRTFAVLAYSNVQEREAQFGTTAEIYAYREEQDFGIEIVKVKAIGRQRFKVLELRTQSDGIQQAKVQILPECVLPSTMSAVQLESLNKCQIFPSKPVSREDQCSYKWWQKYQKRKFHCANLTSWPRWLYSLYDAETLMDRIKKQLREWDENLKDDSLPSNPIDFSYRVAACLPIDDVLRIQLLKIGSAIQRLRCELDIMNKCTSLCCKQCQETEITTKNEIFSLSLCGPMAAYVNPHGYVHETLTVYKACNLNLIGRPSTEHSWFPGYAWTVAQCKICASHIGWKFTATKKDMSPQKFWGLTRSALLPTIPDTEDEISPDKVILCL

SMILES	inhibition at 0.01 µM (TNF-α)	Increase multiple of IFNγ expression (IFNγ)	Increase multiple of IL-2 Expression (IL-2)	IC50 (MM.1S cells)	Elution of CRBN from thalidomide FG beads (CRBN)	IC50 (Mino cells)	IC50 [1]	IC50 [2]	IC50 [3]	IC50 [4]
O=C1CCC(N2Cc3c(OCc4cn(-c5ccc(OC(F)(F)F)cc5)nn4)cccc3C2=O)C(=O)N1 (stereo not drawn) [CCC-135 (compound 17)]	> 50%	>1.5	>3							
O=C1CCC(N2Cc3c(OCc4cn(-c5ccc(OC(F)(F)F)cc5)nn4)cccc3C2=O)C(=O)N1 (stereo not drawn) [Compound 17]				< 0.15 µM	can elute CRBN from the magnetic beads bound to thalidomide	< 0.15 µM				
O=C1CCC(N2Cc3c(OCc4cnc(-c5ccc(OC(F)(F)F)cc5)o4)cccc3C2=O)C(=O)N1 (stereo not drawn) [Compound 45, 3-(1-oxo-4-((2-(4-trifluoromethoxyphenyl)oxazol-5-)methoxy)isoindolin-2-) piperidine-2,6-dione]				< 0.15 µM		< 0.15 µM	> 20 µM	1 to 20 µM	1 to 20 µM	1 to 20 µM
O=C1CCC(N2Cc3c(OCc4cn(-c5ccc(OC6CCOCC6)cc5)nn4)cccc3C2=O)C(=O)N1 (stereo not drawn) [Compound 30, 3-(1-oxo-4-((1-(4-((2H-tetrahydropyran-4-)oxy)phenyl)-1H-1,2,3-triazol-4-)methoxy)isoindolin-2-)piperidine-2,6-dione]				< 0.15 µM		< 0.15 µM	1 to 20 µM	1 to 20 µM	1 to 20 µM	1 to 20 µM
